Laboratory results taken from PubChem BioAssay (NCI).
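Assay format: 96-well plates, 48-hour exposure. TGI: concentration producing complete growth inhibition.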

How the values were obtained:
Test in all cases: inhibition of tumour cell growth, NCI panel, 48 h
KM20L2 colon = tested on: KM20L2 colon
SNB-75 CNS = tested on: SNB-75 CNS
MALME-3M melanoma = tested on: MALME-3M melanoma
HT29 colon = tested on: HT29 colon
LOX IMVI melanoma = tested on: LOX IMVI melanoma
HL-60(TB) leukemia = tested on: HL-60(TB) leukemia
CAKI-1 renal = tested on: CAKI-1 renal
ACHN renal = tested on: ACHN renal
UO-31 renal = tested on: UO-31 renal
NCI-H23 lung = tested on: NCI-H23 lung
DMS 273 small cell lung = tested on: DMS 273 small cell lung
SF-539 CNS = tested on: SF-539 CNS
SK-MEL-2 melanoma = tested on: SK-MEL-2 melanoma
A498 renal = tested on: A498 renal
NCI-H522 lung = tested on: NCI-H522 lung
SK-MEL-5 melanoma = tested on: SK-MEL-5 melanoma
HOP-62 NSCLC = tested on: HOP-62 NSCLC
SF-295 CNS = tested on: SF-295 CNS
RXF-631 renal = tested on: RXF-631 renal
OVCAR-4 ovarian = tested on: OVCAR-4 ovarian
CCRF-CEM leukemia = tested on: CCRF-CEM leukemia
HCT-116 colon = tested on: HCT-116 colon
U251 CNS = tested on: U251 CNS
SK-OV-3 ovarian = tested on: SK-OV-3 ovarian
OVCAR-3 ovarian = tested on: OVCAR-3 ovarian
SF-268 CNS = tested on: SF-268 CNS
NCI-H226 lung = tested on: NCI-H226 lung
RXF 393 renal = tested on: RXF 393 renal
A549 NSCLC = tested on: A549 NSCLC
UACC-257 melanoma = tested on: UACC-257 melanoma
IGROV1 ovarian = tested on: IGROV1 ovarian
HOP-92 NSCLC = tested on: HOP-92 NSCLC
OVCAR-8 ovarian = tested on: OVCAR-8 ovarian
TK-10 renal = tested on: TK-10 renal
HCC-2998 colon = tested on: HCC-2998 colon
DMS 114 small cell lung = tested on: DMS 114 small cell lung
K-562 leukemia = tested on: K-562 leukemia
SR leukemia = tested on: SR leukemia
EKVX NSCLC = tested on: EKVX NSCLC
OVCAR-5 ovarian = tested on: OVCAR-5 ovarian
SW-620 colon = tested on: SW-620 colon
M19-MEL melanoma = tested on: M19-MEL melanoma
HOP-18 NSCLC = tested on: HOP-18 NSCLC
SNB-19 CNS = tested on: SNB-19 CNS
COLO 205 colon = tested on: COLO 205 colon
SK-MEL-28 melanoma = tested on: SK-MEL-28 melanoma
NCI-H460 lung = tested on: NCI-H460 lung
HCT-15 colon = tested on: HCT-15 colon
SN12C renal = tested on: SN12C renal
DLD-1 colon = tested on: DLD-1 colon
786-0 renal = tested on: 786-0 renal
M14 melanoma = tested on: M14 melanoma
MOLT-4 leukemia = tested on: MOLT-4 leukemia
UACC-62 melanoma = tested on: UACC-62 melanoma
KM12 colon = tested on: KM12 colon
SNB-78 CNS = tested on: SNB-78 CNS
XF 498 CNS = tested on: XF 498 CNS
LXFL 529 NSCLC = tested on: LXFL 529 NSCLC
RPMI-8226 leukemia = tested on: RPMI-8226 leukemia

With Cc1cc(S(=O)(=O)O)c(NC(=O)C(=O)Cc2cc(=O)oc3cc(O)ccc23)cc1Cl the TGI (KM20L2 colon) was over 100 µM, the TGI (SNB-75 CNS) was over 100 µM and the TGI (MALME-3M melanoma) was over 100 µM. For the same compound, the TGI (HT29 colon) was over 100 µM, the TGI (LOX IMVI melanoma) was over 100 µM and the TGI (HL-60(TB) leukemia) was over 100 µM. It also gave a TGI (CAKI-1 renal) of over 100 µM, a TGI (ACHN renal) of over 100 µM and a TGI (UO-31 renal) of over 100 µM. It also gave a TGI (NCI-H23 lung) of over 100 µM, a TGI (DMS 273 small cell lung) of over 100 µM and a TGI (SF-539 CNS) of over 100 µM. For the same compound, the TGI (SK-MEL-2 melanoma) was over 100 µM, the TGI (A498 renal) was over 100 µM and the TGI (NCI-H522 lung) was over 100 µM. For the same compound, the TGI (SK-MEL-5 melanoma) was over 100 µM, the TGI (HOP-62 NSCLC) was over 100 µM and the TGI (SF-295 CNS) was over 100 µM. The TGI (RXF-631 renal) was over 100 µM, the TGI (OVCAR-4 ovarian) was over 100 µM and the TGI (CCRF-CEM leukemia) was over 100 µM. The TGI (HCT-116 colon) was over 100 µM, the TGI (U251 CNS) was over 100 µM and the TGI (SK-OV-3 ovarian) was over 100 µM. For the same compound, the TGI (OVCAR-3 ovarian) was over 100 µM, the TGI (SF-268 CNS) was over 100 µM and the TGI (NCI-H226 lung) was over 100 µM. The TGI (RXF 393 renal) was over 100 µM, the TGI (A549 NSCLC) was over 100 µM and the TGI (UACC-257 melanoma) was over 100 µM. The TGI (IGROV1 ovarian) was over 100 µM, the TGI (HOP-92 NSCLC) was over 100 µM and the TGI (OVCAR-8 ovarian) was over 100 µM. For the same compound, the TGI (TK-10 renal) was over 100 µM, the TGI (HCC-2998 colon) was over 100 µM and the TGI (DMS 114 small cell lung) was over 100 µM. It also gave a TGI (K-562 leukemia) of over 100 µM, a TGI (SR leukemia) of over 100 µM and a TGI (EKVX NSCLC) of over 100 µM. It also gave a TGI (OVCAR-5 ovarian) of over 100 µM, a TGI (SW-620 colon) of over 100 µM and a TGI (M19-MEL melanoma) of over 100 µM. It also gave a TGI (HOP-18 NSCLC) of over 100 µM, a TGI (SNB-19 CNS) of over 100 µM and a TGI (COLO 205 colon) of over 100 µM. For the same compound, the TGI (SK-MEL-28 melanoma) was over 100 µM, the TGI (NCI-H460 lung) was over 100 µM and the TGI (HCT-15 colon) was over 100 µM. It also gave a TGI (SN12C renal) of over 100 µM, a TGI (DLD-1 colon) of over 100 µM and a TGI (786-0 renal) of over 100 µM. For the same compound, the TGI (M14 melanoma) was over 100 µM, the TGI (MOLT-4 leukemia) was over 100 µM and the TGI (UACC-62 melanoma) was over 100 µM. It also gave a TGI (KM12 colon) of over 100 µM.
Work on CCOP(=O)(OCC)OC1C=CC2CCC1C2 (stereo unspecified) yielded a TGI (KM20L2 colon) of over 100 µM, a TGI (SNB-75 CNS) of over 100 µM and a TGI (MALME-3M melanoma) of over 100 µM. The TGI (HT29 colon) was over 100 µM, the TGI (LOX IMVI melanoma) was over 100 µM and the TGI (HL-60(TB) leukemia) was over 100 µM. The TGI (CAKI-1 renal) was over 100 µM, the TGI (ACHN renal) was over 100 µM and the TGI (UO-31 renal) was over 100 µM. For the same compound, the TGI (NCI-H23 lung) was over 100 µM, the TGI (DMS 273 small cell lung) was over 100 µM and the TGI (SF-539 CNS) was over 100 µM. It also gave a TGI (SK-MEL-2 melanoma) of over 100 µM, a TGI (SNB-78 CNS) of over 100 µM and a TGI (A498 renal) of over 100 µM. For the same compound, the TGI (NCI-H522 lung) was over 100 µM, the TGI (SK-MEL-5 melanoma) was over 100 µM and the TGI (HOP-62 NSCLC) was over 100 µM. For the same compound, the TGI (XF 498 CNS) was over 100 µM, the TGI (SF-295 CNS) was over 100 µM and the TGI (RXF-631 renal) was over 100 µM. For the same compound, the TGI (OVCAR-4 ovarian) was over 100 µM, the TGI (CCRF-CEM leukemia) was over 100 µM and the TGI (HCT-116 colon) was over 100 µM. It also gave a TGI (U251 CNS) of over 100 µM, a TGI (SK-OV-3 ovarian) of over 100 µM and a TGI (OVCAR-3 ovarian) of over 100 µM. The TGI (SF-268 CNS) was over 100 µM, the TGI (NCI-H226 lung) was over 100 µM and the TGI (RXF 393 renal) was over 100 µM. It also gave a TGI (A549 NSCLC) of over 100 µM, a TGI (UACC-257 melanoma) of over 100 µM and a TGI (IGROV1 ovarian) of over 100 µM. It also gave a TGI (OVCAR-8 ovarian) of over 100 µM, a TGI (TK-10 renal) of over 100 µM and a TGI (HCC-2998 colon) of over 100 µM. The TGI (DMS 114 small cell lung) was over 100 µM, the TGI (LXFL 529 NSCLC) was over 100 µM and the TGI (K-562 leukemia) was over 100 µM. The TGI (SR leukemia) was 58.7 µM, the TGI (EKVX NSCLC) was over 100 µM and the TGI (OVCAR-5 ovarian) was over 100 µM. For the same compound, the TGI (HOP-18 NSCLC) was over 100 µM, the TGI (SNB-19 CNS) was over 100 µM and the TGI (COLO 205 colon) was over 100 µM. It also gave a TGI (SK-MEL-28 melanoma) of over 100 µM, a TGI (RPMI-8226 leukemia) of 54.2 µM and a TGI (NCI-H460 lung) of over 100 µM. For the same compound, the TGI (HCT-15 colon) was over 100 µM, the TGI (SN12C renal) was over 100 µM and the TGI (DLD-1 colon) was over 100 µM. For the same compound, the TGI (786-0 renal) was over 100 µM, the TGI (M14 melanoma) was over 100 µM and the TGI (MOLT-4 leukemia) was over 100 µM. The TGI (UACC-62 melanoma) was over 100 µM and the TGI (KM12 colon) was over 100 µM.
